Where “and” joins values, the source holds several entries; their conditions need not be identical. Equal entries are not always repeated. Entries after “also recorded” stand apart in the source; their conditions may differ. Where two headings read alike, the source gives them in different places. One block for each molecule: values may come before it.
How the values were obtained:
[1] = system: NIH3T3 murine fibroblasts; assay: Cytotoxicity test using the Alamar Blue assay; type: cell-based; settings: Mus musculus, 48 h, tested at 50 µg/mL, read-out: IC50 (toxicity to fibroblasts)
Method: The NHI-3T3 cell line of mouse fibroblasts was grown in DMEN medium supplemented with 10% fetal bovine serum, 2 mM glutamine, 100 µg/mL streptomycin and 100 U/mL penicillin, and incubated at 37 °C with a 5% atmosphere of CO2. For assays, the cells were plated in 96-well plates (10^4 cells per well) and the Alamar Blue^TM assay was performed using previously described procedures. Briefly, after 24 h, the compounds were dissolved in DMSO and added to each well to give final concentrations of 50 µg/mL. Plates were incubated for 48 h. Control groups had final well concentrations of 0.1% DMSO. Two hours before the end of the incubations, 10 µL of Alamar Blue^TM was added to each well. The fluorescent signal was monitored with a multiplate reader using 530–560 nm excitation and 590 nm emission wavelengths.

[2] = system: multi-drug resistant K1 strain of Plasmodium falciparum; assay: In vitro antiplasmodial assay, inhibition of growth of parasites by optical microscopy; type: cell-based; settings: for IC50: Plasmodium falciparum, K1, 48 h, read-out: IC50 ± SD; for Result: activity class from IC50 in µM, K1 strain
Method: The in vitro antiplasmodial test was performed as previously described. […] Sample solutions were applied to the wells of 96-well test plates containing red blood cell suspension having initial parasitemia of 1.5%. […] After incubation, the contents of the wells were evaluated by optical microscopy. The inhibition of the growth of parasites (IGP%) was evaluated as a percentage by comparison with controls:
IGP% = 100 × [1 – (parasitemia with sample/parasitemia of untreated controls)]

[3] = system: chloroquine-resistant Fc M29-Cameroon strain of Plasmodium falciparum; parameters: method as in PMID 21612900; settings: cited from earlier work
[4] = system: K1 strain of P. falciparum; parameters: method as in PMID 17568942, PMID 23092722; settings: cited from earlier work
[5] = cited from earlier work
Plasmodium berghei = system: Plasmodium berghei; parameters: method as in PMID 23092722; settings: Plasmodium berghei-infected mice, daily doses of 50-100 mg/kg/day, 4-day suppressive test; cited from earlier work
[6] = P. falciparum K1 strain, 48 h incubation

- melting point: 260 to 264 °C
SMILES: COC(=O)[C@@H]1[C@H]2Cc3c4[nH]c5ccccc5c4cc[n+]3C[C@@H]2CC[C@H]1O [Compound 3, 3,4,5,6-tetradehydro-β-yohimbine]
- IC50 [1]: > 50 µg/mL
- IC50 [2, 6]: 39.9 ± 7.7 µM
- Result [2]: I (IC50 > 20.0 µM = inactive (I))

- melting point: 164.3 to 165.3 °C
SMILES: CCC1C2CCN(C)C1c1c([nH]c3ccccc13)C2=O (stereo not drawn) [Compound 11, 20-epi-dasycarpidone]
- IC50 [1]: > 50 µg/mL
- in vitro antiplasmodial activity (in words) ([2]; P. falciparum K1 strain): active; also recorded: moderate inhibitory activity
- IC50 [2, 6]: 4.5 µg/mL and 16.7 µM
- Result [2]: MA (IC50 5–20 µM = moderately active (MA))

SMILES: COC(=O)[C@@H]1[C@H]2CC3c4[nH]c5ccccc5c4CCN3C[C@@H]2CC[C@H]1O (stereo partly drawn) [Compound 5, β-yohimbine]
- IC50 [3]: > 1 µg/mL

SMILES: CC[C@@]12CCCN3CC[C@]4(c5ccc(OC)c(O)c5N(C(C)=O)[C@@H]4CC1)[C@H]32 [aspidocarpine]
- in vitro antiplasmodial activity (in words) [4]: significant in vitro antiplasmodial activity

SMILES: CC(=O)N1c2c(O)cccc2C23CC[N+]4=C2C(CC(=O)O)(CCC4)CCC13 (stereo not shown) [Compound 13, 12-hydroxy-N-acetyl-21(N)-dehydroplumeran-18-oic acid]
- IC50 [1]: > 50 µg/mL
- IC50 [2, 6]: > 135 µM
- Result [2]: I (IC50 > 20.0 µM = inactive (I))

SMILES: CCN(CC)CCCC(C)Nc1ccnc2cc(Cl)ccc12 (stereo not shown) [chloroquine diphosphate, reference compound]
- IC50 [2]: 0.17 µg/mL and 330 nM
- Result [2]: A (0.1 < IC50 < 5 µM = active (A))

SMILES: C=C[C@H]1C[N@@]2CC[C@H]1C[C@H]2[C@H](O)c1ccnc2ccc(OC)cc12 [quinine sulphate, reference compound]
- IC50 [2, 6]: 0.12 µg/mL and 300 nM

SMILES: COC(=O)[C@@H]1[C@H]2C[C@H]3c4[nH]c5ccccc5c4CCN3C[C@@H]2CC[C@@H]1O [Compound 6, yohimbine]
- IC50 [3]: > 1 µg/mL

SMILES: CC=C1C[N+]23CCC1CC21Nc2ccccc2C1(O)CC3 (stereo not shown) [Compound 4, 19E-hunteracine]
- IC50 [1]: > 50 µg/mL
- melting point: 343 to 343.3 °C
- IC50 [2, 6]: > 176 µM
- Result [2]: I (IC50 > 20.0 µM = inactive (I))

SMILES: Cc1nccc2c(C)c3[nH]c4ccccc4c3cc12 [Compound 8, olivacine]
- cytotoxicity (in words) [5]: low cytotoxicity
- in vitro antiplasmodial activity (in words) [4]: significant in vitro antiplasmodial activity
- in vivo antimalarial activity (in words) (Plasmodium berghei): high in vivo antimalarial activity

SMILES: Cc1c2ccncc2c(C)c2c1[nH]c1ccccc12 [ellipticine, reference compound]
- cytotoxicity (in words) [5]: low cytotoxicity
- in vitro antiplasmodial activity (in words) [4]: significant in vitro antiplasmodial activity
- in vivo antimalarial activity (in words) (Plasmodium berghei): high in vivo antimalarial activity

SMILES: C/C=C1\CN2CCc3c([nH]c4ccccc34)CC1CC2 (stereo not shown) [Compound 12, 20(E)-nor-subincanadine E]
- IC50 [1]: > 50 µg/mL
- IC50 [2, 6]: 54.3 ± 10.5 µM
- Result [2]: I (IC50 > 20.0 µM = inactive (I))

Source: paper PMC6270234, “Chemical Composition of Aspidosperma ulei Markgr. and Antiplasmodial Activity of Selected Indole Alkaloids” (Molecules, 2013)
